Earlier results in patent publication US20060009360A1, “New adjuvant composition” (priority 2004, published 2006).

Conditions: glyphosate in acid form

For `O=C(O)CNCP(=O)(O)O` [glyphosate, N-(phosphonomethyl)glycine], the water solubility is listed as “about 1.2%”.
